We go through 27 compounds from patent publication US8022206B2 (OSI Pharmaceuticals, LLC, priority 2008, dated 2011).

For test [1], the target named is RON (human) (Homo sapiens, UniProt Q04912). Put plainly: RON (human) AlphaScreen kinase assay, Km of ATP. To be noted: AlphaScreen, Km of ATP; read-out: RON biochemical IC50. It counts as biochemical. The gist of the method:
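Detection used PT66 AlphaScreen beads added in Tris pH 7.5/NaCl/EDTA/BSA buffer, read after 1 h incubation. Vehicle-only DMSO wells served as controls.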
A general note: In Alpha technology, singlet oxygen from a donor bead excites a nearby acceptor bead.

Test [2] addresses MET (human) (Homo sapiens, UniProt P08581). Put plainly: MET (human) AlphaScreen kinase assay, Km of ATP. It counts as biochemical. As to conditions: AlphaScreen, Km of ATP; read-out: Met biochemical IC50. The gist of the method: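 Human MET at lot-optimised concentration in 50 mM Tris pH 7.4 buffer with 1 mM DTT, compound at 1% DMSO final; enzyme starts the reaction, 60 min at RT.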

RON (human), sequence (Q04912 25-1400): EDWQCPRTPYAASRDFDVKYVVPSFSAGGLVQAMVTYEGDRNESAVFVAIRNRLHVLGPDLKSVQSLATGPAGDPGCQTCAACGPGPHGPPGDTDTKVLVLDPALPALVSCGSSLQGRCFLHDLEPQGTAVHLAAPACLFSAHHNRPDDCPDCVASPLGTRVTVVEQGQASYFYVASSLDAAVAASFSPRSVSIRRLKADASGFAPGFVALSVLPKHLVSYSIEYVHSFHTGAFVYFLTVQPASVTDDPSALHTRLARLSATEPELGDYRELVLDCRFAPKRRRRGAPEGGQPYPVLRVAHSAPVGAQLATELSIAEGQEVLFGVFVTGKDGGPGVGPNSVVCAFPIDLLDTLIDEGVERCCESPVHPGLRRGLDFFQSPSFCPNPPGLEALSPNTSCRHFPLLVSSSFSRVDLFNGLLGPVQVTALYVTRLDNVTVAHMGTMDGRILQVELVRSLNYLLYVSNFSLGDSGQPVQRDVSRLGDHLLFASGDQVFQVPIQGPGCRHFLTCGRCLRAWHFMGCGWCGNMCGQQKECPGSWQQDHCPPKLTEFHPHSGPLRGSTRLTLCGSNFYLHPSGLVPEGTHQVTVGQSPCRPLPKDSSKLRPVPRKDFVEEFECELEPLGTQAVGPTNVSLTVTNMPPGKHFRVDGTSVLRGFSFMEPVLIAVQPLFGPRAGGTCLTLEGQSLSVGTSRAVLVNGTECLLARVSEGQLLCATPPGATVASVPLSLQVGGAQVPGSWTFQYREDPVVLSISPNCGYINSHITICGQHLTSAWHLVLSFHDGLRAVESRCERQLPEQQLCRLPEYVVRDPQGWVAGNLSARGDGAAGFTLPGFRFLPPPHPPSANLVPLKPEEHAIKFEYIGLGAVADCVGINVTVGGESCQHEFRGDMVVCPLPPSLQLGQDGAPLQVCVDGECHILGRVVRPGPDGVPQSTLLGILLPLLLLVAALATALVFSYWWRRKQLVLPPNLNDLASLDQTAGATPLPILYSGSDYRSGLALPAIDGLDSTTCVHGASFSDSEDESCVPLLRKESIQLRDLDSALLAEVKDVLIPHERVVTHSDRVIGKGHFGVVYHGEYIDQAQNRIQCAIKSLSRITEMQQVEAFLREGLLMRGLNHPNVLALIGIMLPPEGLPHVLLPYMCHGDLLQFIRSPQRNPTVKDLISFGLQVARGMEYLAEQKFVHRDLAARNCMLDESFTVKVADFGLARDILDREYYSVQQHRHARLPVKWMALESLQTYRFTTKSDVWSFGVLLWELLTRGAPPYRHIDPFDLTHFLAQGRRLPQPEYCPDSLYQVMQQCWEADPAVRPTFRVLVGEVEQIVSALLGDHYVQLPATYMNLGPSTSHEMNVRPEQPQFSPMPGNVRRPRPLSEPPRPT
MET (human), sequence (P08581 25-1390): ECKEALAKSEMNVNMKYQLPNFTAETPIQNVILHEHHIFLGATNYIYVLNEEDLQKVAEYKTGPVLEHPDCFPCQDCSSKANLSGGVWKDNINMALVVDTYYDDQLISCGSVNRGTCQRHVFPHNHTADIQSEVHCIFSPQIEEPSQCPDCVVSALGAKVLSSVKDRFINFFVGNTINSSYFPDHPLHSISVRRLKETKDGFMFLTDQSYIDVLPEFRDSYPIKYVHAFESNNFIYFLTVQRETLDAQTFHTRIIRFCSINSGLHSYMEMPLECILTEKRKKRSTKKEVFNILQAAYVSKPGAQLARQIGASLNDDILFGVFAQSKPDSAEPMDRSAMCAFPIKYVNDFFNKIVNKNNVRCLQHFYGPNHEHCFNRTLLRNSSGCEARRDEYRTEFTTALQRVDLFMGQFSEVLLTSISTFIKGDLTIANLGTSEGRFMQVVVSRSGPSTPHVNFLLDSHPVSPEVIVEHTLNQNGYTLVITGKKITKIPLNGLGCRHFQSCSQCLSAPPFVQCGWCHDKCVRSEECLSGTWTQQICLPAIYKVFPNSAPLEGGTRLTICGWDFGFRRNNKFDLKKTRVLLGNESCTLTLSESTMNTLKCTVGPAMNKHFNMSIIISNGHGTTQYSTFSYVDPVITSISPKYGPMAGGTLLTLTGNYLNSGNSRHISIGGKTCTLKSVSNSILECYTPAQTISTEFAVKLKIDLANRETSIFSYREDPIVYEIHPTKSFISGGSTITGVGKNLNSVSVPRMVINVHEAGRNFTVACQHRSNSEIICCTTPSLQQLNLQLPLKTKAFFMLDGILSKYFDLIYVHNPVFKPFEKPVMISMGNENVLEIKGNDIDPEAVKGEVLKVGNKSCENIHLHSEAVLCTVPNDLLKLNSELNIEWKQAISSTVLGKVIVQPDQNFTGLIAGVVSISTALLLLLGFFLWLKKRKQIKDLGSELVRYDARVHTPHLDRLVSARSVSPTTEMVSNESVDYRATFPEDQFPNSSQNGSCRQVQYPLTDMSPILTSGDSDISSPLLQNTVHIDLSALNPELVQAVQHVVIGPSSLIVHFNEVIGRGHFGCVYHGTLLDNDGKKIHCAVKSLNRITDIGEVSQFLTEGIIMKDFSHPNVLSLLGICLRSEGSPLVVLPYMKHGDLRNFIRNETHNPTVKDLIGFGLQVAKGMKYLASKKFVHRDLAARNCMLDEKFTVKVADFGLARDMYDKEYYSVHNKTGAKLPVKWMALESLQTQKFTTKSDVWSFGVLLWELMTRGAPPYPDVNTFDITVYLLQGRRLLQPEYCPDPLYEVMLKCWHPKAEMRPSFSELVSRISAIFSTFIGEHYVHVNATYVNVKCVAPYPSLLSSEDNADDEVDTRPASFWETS

As to `C[C@@H](Oc1c(N)ncc2c(C3=CCOCC3)coc12)c1c(Cl)ccc(F)c1Cl` [Example 138, 7-[(R)-1-(2,6-Dichloro-3-fluorophenyl)-ethoxy]-3-(3,6-dihydro-2H-pyran-4-yl)-furo[3,2-c]pyridin-6-ylamine], the IC50 (in general, the concentration needed to halve the response being measured) in test [1] is 0.5 to 5 µM; in test [2], under 0.5 µM.
The matching figures for `C[C@@H](Oc1c(N)ncc2c(C(=O)NCCN(C)C)coc12)c1c(Cl)ccc(F)c1Cl` [Example 190, 6-Amino-7-[(R)-1-(2,6-dichloro-3-fluorophenyl)ethoxy]furo[3,2-c]pyridine-3-carboxylic acid (3-dimethylaminoethyl)amide]: 0.5 to 5 µM and under 0.5 µM.
`C[C@@H](Oc1c(N)ncc2c(-c3cccc(C(=O)O)c3)coc12)c1c(Cl)ccc(F)c1Cl` [Example 80, 3-{6-Amino-7-[(R)-1-(2,6-dichloro-3-fluorophenyl)ethoxy]-furo[3,2-c]pyridin-3-yl}benzoic acid]: the IC50 in test [1] and in test [2] was 0.5 to 5 µM each time.
`C[C@@H](Oc1c(N)ncc2c(C3=CCN(S(=O)(=O)c4ccccc4)CC3)coc12)c1c(Cl)ccc(F)c1Cl` [Example 49, 3-(1-Benzenesulfonyl-1,2,3,6-tetrahydropyridin-4-yl)-7-[(R)-1-(2,6-dichloro-3-fluorophenyl)-ethoxy]-furo[3,2-c]pyridin-6-ylamine]: the half-inhibitory concentration (IC50) in test [1] and in test [2] was 0.5 to 5 µM in each case.
In the case of `COC(=O)c1coc2c(O[C@H](C)c3c(Cl)ccc(F)c3Cl)c(N)ncc12` [Example 175, 6-Amino-7-[(R)-1-(2,6-dichloro-3-fluorophenyl)ethoxy]furo[3,2-c]pyridine-3-carboxylic acid methyl ester], the IC50 was 5 to 20 µM in test [1] and 0.5 to 5 µM in test [2].
For `C[C@@H]1CN(C(=O)N2CC=C(c3coc4c(O[C@H](C)c5c(Cl)ccc(F)c5Cl)c(N)ncc34)CC2)C[C@H](C)N1` (relative stereo) [Example 224, (4-{6-Amino-7-[(R)-1-(2,6-dichloro-3-fluorophenyl)ethoxy]-furo[3,2-c]pyridin-3-yl}-3,6-dihydro-2H-pyridin-1-yl)-((3R*,5S*)-3,5-dimethylpiperazin-1-yl)methanone] the same measures were under 0.5 µM and under 0.5 µM.
For `COC(=O)c1csc(-c2coc3c(O[C@H](C)c4c(Cl)ccc(F)c4Cl)c(N)ncc23)c1` [Example 292, 5-{6-Amino-7-[(R)-1-(2,6-dichloro-3-fluorophenyl)ethoxy]furo[3,2-c]pyridin-3-yl}thiophene-3-carboxylic acid methyl ester] the same measures were 0.5 to 5 µM and 0.5 to 5 µM.
As to `CC(Oc1c(N)ncc2c(-c3cnn(C4CCNCC4)c3)coc12)c1ccc2ccccc2c1` (stereo not drawn) [Example 432, 7-(1-Naphthalen-2-ylethoxy)-3-(1-piperidin-4-yl-1H-pyrazol-4-yl)furo[3,2-c]pyridin-6-ylamine], the IC50 in test [1] and in test [2] was 0.5 to 5 µM throughout.
Consider `C[C@@H](Oc1c(N)ncc2c(-c3cccc(NS(=O)(=O)c4cccs4)c3)coc12)c1c(Cl)ccc(F)c1Cl` [Example 247, Thiophene-2-sulfonic acid (3-{6-amino-7-[(R)-1-(2,6-dichloro-3-fluorophenyl)-ethoxy]-furo[3,2-c]pyridin-3-yl}phenyl)amide], for which the IC50 in test [1] was in the range of 5 to 20 µM; in test [2], 0.5 to 5 µM.
Consider `C[C@@H](Oc1c(N)ncc2c(-c3cnc(N(C)C)nc3)coc12)c1c(Cl)ccc(F)c1Cl` [Example 124, 7-[(R)-1-(2,6-Dichloro-3-fluorophenyl)ethoxy]-3-(2-dimethylaminopyrimidin-5-yl)furo[3,2-c]pyridin-6-ylamine], for which the concentration for half-maximal inhibition (IC50) in test [1] and in test [2] was 0.5 to 5 µM throughout.
In the case of `C[C@@H](Oc1c(N)ncc2c(-c3ccc(CN4CCCCC4)s3)coc12)c1c(Cl)ccc(F)c1Cl` [Example 215, 7-[(R)-1-(2,6-Dichloro-3-fluorophenyl)ethoxy]-3-(5-piperidin-1-ylmethylthiophen-2-yl)-furo[3,2-c]pyridin-6-ylamine], the IC50 in test [1] and in test [2] was under 0.5 µM throughout.
Consider `Cn1c(Cc2ccccc2)ncc(-c2ccc(COc3c(N)ncc4c(-c5cnn(C6CCNCC6)c5)coc34)c(F)c2)c1=O` [Example 463, 5-{4-[6-Amino-3-(1-piperidin-4-yl-1H-pyrazol-4-yl)-furo[3,2-c]pyridin-7-yloxymethyl]-3-fluorophenyl}-2-benzyl-3-methyl-3H-pyrimidin-4-one], for which the IC50 in test [1] and in test [2] was under 0.5 µM each time.
Regarding `C[C@@H](Oc1c(N)ncc2c(-c3ccc([N+](=O)[O-])nc3)coc12)c1c(Cl)ccc(F)c1Cl` [Example 119, 7-[(R)-1-(2,6-Dichloro-3-fluorophenyl)ethoxy]-3-(6-nitropyridin-3-yl)furo[3,2-c]pyridin-6-ylamine], the results for the IC50 in test [1] and in test [2] were 5 to 20 µM and 0.5 to 5 µM, respectively.
Take `CC(=O)Nc1ccc(-c2coc3c(O[C@H](C)c4c(Cl)ccc(F)c4Cl)c(N)ncc23)cc1` [Example 58, N-(4-{6-Amino-7-[(R)-1-(2,6-dichloro-3-fluorophenyl)ethoxy]-furo[3,2-c]pyridin-3-yl}phenyl)acetamide]: the IC50 in test [1] and in test [2] was 0.5 to 5 µM throughout.
With `C[C@@H](Oc1c(N)ncc2c(C3=CCN(C(=O)[C@]4(C)CCCN4)CC3)coc12)c1c(Cl)ccc(F)c1Cl` [Example 160, [4-{6-Amino-7-[(1R)-1-(2,6-dichloro-3-fluorophenyl)ethoxy]furo[3,2-c]pyridin-3-yl}-3,6-dihydropyridin-1(2H)-yl][(2S)-2-methylpyrrolidin-2-yl]methanone], the IC50 in test [1] and in test [2] was under 0.5 µM in each case.
With `C[C@@H](Oc1c(N)ncc2c(C(=O)NC3CCN(C)CC3)coc12)c1c(Cl)ccc(F)c1Cl` [Example 186, 6-Amino-7-[(R)-1-(2,6-dichloro-3-fluorophenyl)ethoxy]furo[3,2-c]pyridine-3-carboxylic acid (1-methylpiperidin-4-yl)amide], the IC50 was 0.5 to 5 µM in test [1] and under 0.5 µM in test [2].
For `C[C@@H](Oc1c(N)ncc2c(C3=CCN(C(=O)c4cnc[nH]4)CC3)coc12)c1c(Cl)ccc(F)c1Cl` [Example 233, (4-{6-Amino-7-[(R)-1-(2,6-dichloro-3-fluorophenyl)ethoxy]-furo[3,2-c]pyridin-3-yl}-3,6-dihydro-2H-pyridin-1-yl)-(3H-imidazol-4-yl)-methanone] the same measures were 0.5 to 5 µM and 0.5 to 5 µM.
Regarding `C[C@@H](Oc1c(N)ncc2c(-c3ccc(CN4CCSCC4)s3)coc12)c1c(Cl)ccc(F)c1Cl` [Example 219, 7-[(R)-1-(2,6-Dichloro-3-fluorophenyl)ethoxy]-3-(5-thiomorpholin-4-ylmethylthiophen-2-yl)furo[3,2-c]pyridin-6-ylamine], the IC50 in test [1] and in test [2] was 0.5 to 5 µM in each case.
As to `CC(Oc1c(N)ncc2c(-c3cnn(C4CCNCC4)c3)coc12)c1c(F)ccc(F)c1Cl` (stereo not drawn) [Example 379, 7-[1-(2-Chloro-3,6-difluorophenyl)ethoxy]-3-(1-piperidin-4-yl-1H-pyrazol-4-yl)furo[3,2-c]pyridin-6-ylamine], the IC50 in test [1] and in test [2] was under 0.5 µM in each case.
Consider `C[C@@H](Oc1c(N)ncc2c(C3=CCN(CC(=O)N(C)C)CC3)coc12)c1c(Cl)ccc(F)c1Cl` [Example 200, 2-(4-{6-Amino-7-[(R)-1-(2,6-dichloro-3-fluorophenyl)ethoxy]-furo[3,2-c]pyridin-3-yl}-3,6-dihydro-2H-pyridin-1-yl)-N,N-dimethylacetamide], for which the IC50 was 0.5 to 5 µM in test [1] and under 0.5 µM in test [2].
`CC(Oc1c(N)ncc2c(-c3cnn(C4CCNCC4)c3)coc12)c1ccccc1F` (stereo not drawn) [Example 374, 7-[1-(2-Fluorophenyl)ethoxy]-3-(1-piperidin-4-yl-1H-pyrazol-4-yl)furo[3,2-c]pyridin-6-ylamine]: the IC50 in test [1] and in test [2] was 0.5 to 5 µM each time.
With `C[C@@H](Oc1c(N)ncc2c(Br)coc12)c1c(Cl)ccc(F)c1Cl` [Example 2, 3-Bromo-7-[(R)-1-(2,6-dichloro-3-fluorophenyl)-ethoxy]-furo[3,2-c]pyridin-6-ylamine], the values for the IC50 in test [1] and in test [2] were 5 to 20 µM and 0.5 to 5 µM, respectively.
In the case of `C[C@@H](Oc1c(N)ncc2c(-c3cncc(C(=O)NC(C)(C)C)c3)coc12)c1c(Cl)ccc(F)c1Cl` [Example 280, 5-{6-Amino-7-[(R)-1-(2,6-dichloro-3-fluorophenyl)ethoxy]furo[3,2-c]pyridin-3-yl}-N-tert-butylnicotinamide], the IC50 is 5 to 20 µM in test [1] and 0.5 to 5 µM in test [2].
For `CC(=O)Nc1cccc(-c2coc3c(O[C@H](C)c4c(Cl)ccc(F)c4Cl)c(N)ncc23)c1` [Example 78, N-(3-{6-Amino-7-[(R)-1-(2,6-dichloro-3-fluorophenyl)ethoxy]-furo[3,2-c]pyridin-3-yl}phenyl)acetamide] the same measures were 0.5 to 5 µM and 0.5 to 5 µM.
Regarding `CC(Oc1c(N)ncc2c(-c3cnn(C4CCNCC4)c3)coc12)c1ccc(Br)cc1` (stereo not drawn) [Example 388, 7-[1-(4-Bromophenyl)ethoxy]-3-(1-piperidin-4-yl-1H-pyrazol-4-yl)furo[3,2-c]pyridin-6-ylamine], the IC50 in test [1] is 0.5 to 5 µM; in test [2] it was under 0.5 µM.
For `Nc1ncc2c(-c3cnn(C4CCNCC4)c3)coc2c1OC(c1c(F)ccc(F)c1Cl)C1CC1` (stereo not drawn) [Example 367, 7-[(2-Chloro-3,6-difluorophenyl)cyclopropylmethoxy]-3-(1-piperidin-4-yl-1H-pyrazol-4-yl)furo[3,2-c]pyridin-6-ylamine], the IC50 in test [1] and in test [2] was under 0.5 µM throughout.
With `C[C@@H](Oc1c(N)ncc2c(C(=O)NCCN)coc12)c1c(Cl)ccc(F)c1Cl` [Example 193, 6-Amino-7-[(R)-1-(2,6-dichloro-3-fluorophenyl)ethoxy]furo[3,2-c]pyridine-3-carboxylic acid (3-aminoethyl)amide], the IC50 is 0.5 to 5 µM in test [1] and under 0.5 µM in test [2].
